Reference: patent publication US10077436B2, “Beta-glucosidase enzymes for increased biomass saccharification” (Edeniq, Inc., priority 2013, dated 2018)

Target: T1, Aspergillus niger beta-glucosidase, wild type, yEdQ745-BG (CAB75696.1, SEQ ID NO:2) (Aspergillus niger, UniProt Q9P8F4)
T1 construct: strain yEdQ745
T1 sequence (Q9P8F4 20-860): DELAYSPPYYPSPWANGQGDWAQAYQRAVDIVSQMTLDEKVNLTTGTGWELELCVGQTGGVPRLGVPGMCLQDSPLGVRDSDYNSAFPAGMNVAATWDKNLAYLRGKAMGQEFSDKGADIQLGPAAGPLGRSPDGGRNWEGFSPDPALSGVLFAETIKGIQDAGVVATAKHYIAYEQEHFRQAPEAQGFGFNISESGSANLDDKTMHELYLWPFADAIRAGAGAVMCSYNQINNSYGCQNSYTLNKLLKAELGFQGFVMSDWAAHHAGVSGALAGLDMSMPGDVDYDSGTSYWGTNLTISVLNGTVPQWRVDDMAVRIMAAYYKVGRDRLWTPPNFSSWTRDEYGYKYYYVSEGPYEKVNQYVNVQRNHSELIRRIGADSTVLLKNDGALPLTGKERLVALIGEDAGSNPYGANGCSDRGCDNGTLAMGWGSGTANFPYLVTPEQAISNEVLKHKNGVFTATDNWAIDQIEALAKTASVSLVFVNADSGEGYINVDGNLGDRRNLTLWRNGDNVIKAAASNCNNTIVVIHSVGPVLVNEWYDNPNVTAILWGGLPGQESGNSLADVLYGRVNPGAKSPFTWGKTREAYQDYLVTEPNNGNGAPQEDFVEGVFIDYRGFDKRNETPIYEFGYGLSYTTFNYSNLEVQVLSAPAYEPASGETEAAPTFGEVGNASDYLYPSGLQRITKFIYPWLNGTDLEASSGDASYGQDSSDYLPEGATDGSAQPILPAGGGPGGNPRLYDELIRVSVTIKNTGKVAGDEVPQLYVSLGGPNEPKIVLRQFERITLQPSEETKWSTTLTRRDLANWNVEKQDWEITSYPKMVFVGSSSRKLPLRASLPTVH
Test: BG kinetics, pNPG hydrolysis assay with glucose as competitive inhibitor, yEdQ745-BG
Assay type: biochemical
Text: Accordingly, in some embodiments, the unmodified form of the beta-glucosidase is a wild-type or a naturally occurring beta-glucosidase, such as, for example, a fungal beta-glucosidase. The full nucleic acid and amino acid sequence for numerous fungal beta-glucosidases are available. The amino acid sequence of A. niger beta-glucosidase is provided as SEQ ID NO:2. Thus, in some embodiments, the unmodified beta-glucosidase is from an Aspergillus species. In some embodiments, the unmodified beta-glucosidase is from a Trichoderma species.
The beta-glucosidase (BG) gene from Aspergillus niger (Accession #CAB75696.1) was integrated into the TR3 yeast background at the T4U3 genomic site.
The BG-expressing strains were subsequently used in corn mash and corn stover simultaneous saccharification and fermentation (SSF) studies using flask scale and pilot plant fermentations. […]
BG activity assay using pNPG is one of the two commonly used standard assays to measure BG activity, which utilizes hydrolysis of p-nitrophenyl-β-D-glucopyranoside (pNPG) by BG into a yellow colored product, p-nitrophenol (pNP), that has a strong absorbance at 405 nm. […] The reaction was then terminated by adding 100 μL of 0.25 M sodium carbonate, and the amount of pNP produced was determined by measuring absorbance at 405 nm using a predetermined calibration curve. […]

Work on `OC[C@H]1OC(O)[C@H](O)[C@@H](O)[C@@H]1O` (some centres unmarked) [glucose] yielded a Ki of 2130 ± 180 µM and a Km/Ki (inhibitor influence, Km for pNPG / Ki for glucose, pH 5.0, 50° C.) of 0.30.
